# Literature values as cited in US6903092B2, “Naphthamide neurokinin antagonists for use as medicaments” (priority 2000, dated 2005).
# Where two headings read alike, the source gives them in different places. Square brackets hold non-standard residues; d marks the D form. Peptide text beside a SMILES is read from it. * marks the point of attachment. Cyclohexanecarbonyl = O=C(C1CCCCC1)*
# How the values were obtained:
# [1] = not given; remark: listed apart in the source
# [2] = Vassout et al, Neuropeptides 26/S1: 38, 1994; only at 30 mg/kg bid
# [3] = not given; remark: listed apart in the source
# [4] = system: Marmoset; conditions: Walsh et al., Psychopharmacology 121: 186-191, 1995
# [5] = Vassout et al, Neuropeptides 26/S1: 38, 1994
# [6] = Teixeira et al., Eur J Pharmacol 311(1): 7-14, 1996
# [7] = Walsh et al., Psychopharmacology 121: 186-191, 1995
# [8] = Stratton et al., Eur. J. Pharmacol. 250: R11-12, 1993
SMILES,"Outcome, Elevated plus-maze [6]","Outcome, Light-dark box [3, 7]","Outcome, Marmoset human intruder [4]","Outcome, Light-dark box [3, 8]",further results
Cc1cc(C)cc(C(=O)N2CC[C@H](NCc3ccnc4ccccc34)C[C@H]2Cc2ccccc2)c1 [CGP 49823],,,,,"Outcome, Elevated plus-maze [5]: inactive; Outcome, Social interaction ([1]; File, Pharm Bio B 58(3): 747-752, 1997): anxiolytic; Outcome, Social interaction test [1, 5]: anxiolytic; Outcome, Forced swim test (depression model) [2]: antidepressant"
CN(Cc1ccccc1)C(=O)[C@H](Cc1ccc2ccccc2c1)NC(=O)[C@@H]1C[C@@H](O)CN1C(=O)c1cn(C)c2ccccc12 [FK888],anxiolytic,,,,
COC1(C[S@@+]([O-])c2ccccc2)CCN(CCc2c[nH]c3ccc(F)cc23)CC1 [GR159897],,anxiolytic,anxiolytic,,
CC(=O)NC1(c2ccccc2)CCN(CC[C@H](CN(C)C(=O)c2ccccc2)c2ccc(Cl)c(Cl)c2)CC1 [SR48968],anxiolytic,anxiolytic,anxiolytic,anxiolytic,
C[C@H](NC(=O)CNC(=O)C1CCCCC1)C(=O)N[C@H](Cc1c[nH]c2ccccc12)C(=O)N[C@@H](Cc1ccccc1)C(=O)N(C)C [GR100679] (Cyclohexanecarbonyl-GA[dW]F-NMe2),,,,anxiolytic,
